What all share (type): functional
Common to all, as to settings: read-out: ED50 (the source's name)

The nature of assay [1]: Cytotoxicity against human […] cells by tetrazolium salt-based colorimetric assay.
The next assay concerns KB. The experiment in a line: Cytotoxicity against human KB cells by tetrazolium salt-based colorimetric assay.
In another assay the test system is A549. Description: Cytotoxicity against human A549 cells by tetrazolium salt-based colorimetric assay.
Another assay concerns HCT-8. Description: Cytotoxicity against human HCT8 cells by tetrazolium salt-based colorimetric assay.
The subject of a further assay is TE-671. The experiment in a line: Cytotoxicity against human TE671 cells by tetrazolium salt-based colorimetric assay.

In ChEMBL document CHEMBL1150212, “Antitumor agents, 129. Tannins and related compounds as selective cytotoxic agents” (1992) one finds EC50 data, which are given here for 22 molecules.

For `O=C1OC[C@H]2OC(=O)c3cc(O)c(O)c(O)c3-c3c(O)c(O)c(O)c4c3C(=O)O[C@H]([C@H]3OC(=O)c5c-4c(O)c(O)c(O)c5[C@H]3O)[C@@H]2OC(=O)c2cc(O)c(O)c(O)c2-c2c1cc(O)c(O)c2O` [CASTALAGIN], the EC50 is 0.79 µg/mL in assay [1]; over 10 µg/mL in the assay on KB; over 10 µg/mL in the assay on A549; over 10 µg/mL in the assay with HCT-8; over 10 µg/mL with TE-671.

Consider `CC1(C)CC[C@]2(C(=O)O)CC[C@]3(C)C(=CC[C@@H]4[C@@]5(C)C[C@@H](O)[C@@H]6OC(=O)c7cc(O)c(O)c(O)c7-c7c(cc(O)c(O)c7O)C(=O)OC[C@@]6(CO)[C@@H]5CC[C@]43C)[C@@H]2C1` [CASTANOPSINIIN A], for which the EC50 (in assay [1]; in the assay on KB; in the assay with A549; in the assay with HCT-8; in the assay on TE-671) was over 10 µg/mL each time.

`CC1(C)CC[C@]2(C(=O)O[C@@H]3O[C@H](CO)[C@@H](O)[C@H](O)[C@H]3O)CC[C@]3(C)C(=CC[C@@H]4[C@@]5(C)C[C@@H](O)[C@@H]6OC(=O)c7cc(O)c(O)c(O)c7-c7c(cc(O)c(O)c7O)C(=O)OC[C@@]6(CO)[C@@H]5CC[C@]43C)[C@@H]2C1` [CASTANOPSININ A]: the EC50 (in assay [1]; in the assay on KB; in the assay on A549; in the assay on HCT-8; with TE-671) was over 10 µg/mL throughout.

With `O=C(O[C@@H]1COC(=O)c2cc(O)c(O)c(O)c2-c2c(cc(O)c(O)c2O)C(=O)O[C@H]1[C@@H]1OC(=O)c2cc(O)c(O)c(O)c2-c2c(O)c(O)c(O)c3c2C(=O)O[C@H]1[C@@H]3O)c1cc(O)c(O)c(O)c1` [CASUARININ], the EC50 was 2.24 µg/mL in assay [1]; over 10 µg/mL in the assay on KB; over 10 µg/mL with A549; over 10 µg/mL in the assay with HCT-8; over 10 µg/mL in the assay on TE-671.

Regarding `O=C(O)C[C@@H]1C(=O)O[C@H]2[C@@H]3OC(=O)c4cc(O)c(O)c(O)c4-c4c(cc(O)c(O)c4O)C(=O)OC[C@H]2O[C@@H](OC(=O)c2cc(O)c(O)c(O)c2)[C@@H]3OC(=O)c2cc(O)c(O)c3c2[C@H]1[C@H](O)C(=O)O3` [CHEBULAGIC ACID], the EC50 in assay [1] is 0.8 µg/mL; in the assay on KB, over 10 µg/mL; in the assay with A549 it was over 10 µg/mL; in the assay with HCT-8 it was over 10 µg/mL; in the assay on TE-671, over 10 µg/mL.

On to `O=C(O)C[C@H]1C(=O)O[C@H]2[C@H](OC(=O)c3cc(O)c(O)c(O)c3)[C@@H](OC(=O)c3cc(O)c(O)c4c3[C@H]1[C@H](O)C(=O)O4)[C@H](OC(=O)c1cc(O)c(O)c(O)c1)O[C@@H]2COC(=O)c1cc(O)c(O)c(O)c1` [CHEBULINIC ACID], for which the EC50 (in assay [1]; with KB; in the assay with A549; in the assay with HCT-8; in the assay on TE-671) was over 10 µg/mL in each case.

As for `Oc1cc(O)c2c(c1)O[C@H](c1ccc(O)c(O)c1)[C@@H](O)C2` [CIANIDANOL], the EC50 (in assay [1]; in the assay on KB; in the assay on A549; with HCT-8; in the assay on TE-671) was over 10 µg/mL in each case.

Consider `Oc1cc(O)c2c(c1)O[C@@]1(c3ccc(O)c(O)c3)Oc3cc(O)c4c(c3[C@@H]2[C@H]1O)O[C@H](c1ccc(O)c(O)c1)[C@H](O)[C@H]4c1c(O)cc(O)c2c1O[C@H](c1ccc(O)c(O)c1)[C@H](O)C2` [CINNAMTANNIN B1], for which the EC50 in assay [1] is 3.57 µg/mL; in the assay with KB, over 10 µg/mL; in the assay on A549, over 10 µg/mL; in the assay with HCT-8 it was over 10 µg/mL; in the assay with TE-671 it was over 10 µg/mL.

Regarding `Oc1cc(O)c2c(c1)O[C@H](c1ccc(O)c(O)c1)[C@H](O)[C@H]2c1c(O)cc(O)c2c1O[C@@]1(c3ccc(O)c(O)c3)Oc3cc(O)c4c(c3[C@@H]2[C@H]1O)O[C@H](c1ccc(O)c(O)c1)[C@H](O)[C@H]4c1c(O)cc(O)c2c1O[C@H](c1ccc(O)c(O)c1)[C@H](O)C2` [CINNAMTANNIN B2], the EC50 in assay [1] was 0.66 µg/mL; in the assay with KB, over 10 µg/mL; in the assay with A549, over 10 µg/mL; with HCT-8, over 10 µg/mL; with TE-671, over 10 µg/mL.

Regarding `O=C(O[C@@H]1O[C@@H]2COC(=O)c3cc(O)c(O)c(O)c3-c3c(cc(O)c(O)c3O)C(=O)O[C@H]([C@H]1O)[C@@H]2O)c1cc(O)c(O)c(O)c1` [CORILAGIN], the EC50 (in assay [1]; in the assay with KB; with A549; with HCT-8; in the assay with TE-671) was over 10 µg/mL each time.

For `O=C(O[C@@H]1O[C@@H]2COC(=O)c3cc(O)c(O)c(O)c3-c3c(cc(O)c(O)c3O)C(=O)O[C@@H]3[C@H]1OC(=O)c1cc(O)c(O)c4c1C1C(O)(O4)[C@]4(O)C[C@@]5(C(=O)O[C@H]6C(O)CO[C@@]65O)[C@]1(CC4=O)C(=O)O[C@@H]32)c1cc(O)c(O)c(O)c1` (stereo not given in full) [ELAEOCARPUSIN], the EC50 in assay [1] was 2.62 µg/mL; with KB it was over 10 µg/mL; in the assay with A549 it was over 10 µg/mL; with HCT-8, over 10 µg/mL; with TE-671 it was over 10 µg/mL.

Regarding `O=C(O[C@@H]1Cc2c(O)cc(O)cc2O[C@@H]1c1ccc(O)c(O)c1)c1cc(O)c(O)c(O)c1` [EPICATECHIN GALLATE], the EC50 was 0.55 µg/mL in assay [1]; over 10 µg/mL in the assay on KB; over 10 µg/mL in the assay with A549; over 10 µg/mL in the assay with HCT-8; over 10 µg/mL in the assay with TE-671.

`O=C(O[C@@H]1O[C@@H]2COC(=O)c3cc(O)c(O)c(O)c3-c3c(cc(O)c(O)c3O)C(=O)O[C@H]2[C@H](OC(=O)c2cc(O)c(O)c(O)c2)[C@H]1OC(=O)c1cc(O)c(O)c(O)c1)c1cc(O)c(O)c(O)c1` [EUGENIIN]: the EC50 in assay [1] is 2.74 µg/mL; in the assay on KB it was over 10 µg/mL; with A549, over 10 µg/mL; in the assay on HCT-8, over 10 µg/mL; in the assay with TE-671, over 10 µg/mL.

In the case of `O=C1O[C@H]2[C@H](O)[C@@H](OC(=O)c3cc(O)c(O)c4c3[C@@H]3C1=CC(=O)C(O)(O)C3(O)O4)[C@H](OC(=O)c1cc(O)c(O)c(O)c1)O[C@@H]2CO` (stereo not given in full) [FUROSIN], the EC50 is 0.67 µg/mL in assay [1]; over 10 µg/mL in the assay on KB; over 10 µg/mL in the assay with A549; over 10 µg/mL in the assay with HCT-8; over 10 µg/mL in the assay with TE-671.

On to `O=C1O[C@H]2[C@@H]3OC(=O)c4cc(O)c(O)c(O)c4-c4c(cc(O)c(O)c4O)C(=O)OC[C@H]2O[C@@H](OC(=O)c2cc(O)c(O)c(O)c2)[C@@H]3OC(=O)c2cc(O)c(O)c3c2[C@@H]2C1=CC(=O)[C@](O)(O3)C2(O)O` [GERANIIN], for which the EC50 in assay [1] was 0.35 µg/mL; in the assay on KB it was over 10 µg/mL; in the assay with A549 it was over 10 µg/mL; in the assay with HCT-8, over 10 µg/mL; in the assay with TE-671 it was over 10 µg/mL.

On to `O=C1OC[C@H]2OC(=O)c3cc(O)c(O)c(O)c3-c3c(O)c(O)c(O)c4c3C(=O)O[C@H]([C@H]3OC(=O)c5c-4c(O)c(O)c(O)c5[C@@H]3C3(O)OC[C@H](O)[C@@H](O)[C@H]3O)[C@@H]2OC(=O)c2cc(O)c(O)c(O)c2-c2c1cc(O)c(O)c2O` (stereo not given in full) [GRANDININ], for which the EC50 in assay [1] is 0.1 µg/mL; in the assay on KB, over 10 µg/mL; in the assay with A549, over 10 µg/mL; in the assay on HCT-8 it was over 10 µg/mL; in the assay with TE-671, over 10 µg/mL.

For the molecule `O=C(OC[C@H]1OC(O)[C@@](O)(COC(=O)c2cc(O)c(O)c(O)c2)[C@@H]1O)c1cc(O)c(O)c(O)c1` (stereo not given in full) [HAMAMELITANNIN], the EC50 (in assay [1]; with KB; with A549; with HCT-8; in the assay on TE-671) was over 10 µg/mL in each case.

Consider `O=C(O[C@@H]1O[C@@H]2COC(=O)c3cc(O)c(O)c(O)c3-c3c(cc(Oc4c(C(=O)O)cc(O)c(O)c4O)c(O)c3O)C(=O)O[C@H]([C@H]1O)[C@@H]2O)c1cc(O)c(O)c(O)c1` [MALLOTINIC ACID], for which the EC50 (in assay [1]; in the assay with KB; with A549; in the assay with HCT-8; with TE-671) was over 10 µg/mL in each case.

As for `O=C1O[C@H]2[C@@H]3OC(=O)c4cc(Oc5c(C(=O)O)cc(O)c(O)c5O)c(O)c(O)c4-c4c(cc(O)c(O)c4O)C(=O)OC[C@H]2O[C@@H](OC(=O)c2cc(O)c(O)c(O)c2)[C@@H]3OC(=O)c2cc(O)c(O)c3c2[C@@H]2C1=CC(=O)[C@](O)(O3)C2(O)O` [MALLOTUSINIC ACID], the EC50 (in assay [1]; with KB; with A549; in the assay with HCT-8; in the assay with TE-671) was over 10 µg/mL each time.

`O=C1OC[C@H]2OC(=O)c3cc(O)c(O)c(O)c3-c3c(O)c(O)c(O)c4c3C(=O)O[C@H]([C@H]3OC(=O)C5C4=C(O)C(=O)C54Oc5cc(O)c6c(c5[C@H]34)O[C@H](c3ccc(O)c(O)c3)[C@@H](O)C6)[C@@H]2OC(=O)c2cc(O)c(O)c(O)c2-c2c1cc(O)c(O)c2O` [MONGOLICAIN A]: the EC50 (in assay [1]; in the assay on KB; in the assay on A549; in the assay on HCT-8; with TE-671) was over 10 µg/mL each time.

With `O=C1OC[C@H]2OC(O)[C@@H]3OC(=O)c4cc(O)c(O)c(O)c4-c4c(cc(O)c(O)c4O)C(=O)O[C@H]3[C@@H]2OC(=O)c2cc(O)c(O)c(O)c2-c2c1cc(O)c(O)c2O` (stereo not given in full) [PEDUNCULAGIN], the EC50 in assay [1] is 2.74 µg/mL; with KB it was over 10 µg/mL; with A549, over 10 µg/mL; with HCT-8, over 10 µg/mL; in the assay on TE-671 it was over 10 µg/mL.

`O=C(OC[C@H]1O[C@@H](OC(=O)c2cc(O)c(O)c(O)c2)[C@H](OC(=O)c2cc(O)c(O)c(O)c2)[C@@H](OC(=O)c2cc(O)c(O)c(O)c2)[C@@H]1OC(=O)c1cc(O)c(O)c(O)c1)c1cc(O)c(O)c(O)c1` [PENTAGALLOYL GLUCOSE]: the EC50 is 5.01 µg/mL in assay [1]; over 10 µg/mL in the assay on KB; over 10 µg/mL with A549; over 10 µg/mL in the assay on HCT-8; over 10 µg/mL in the assay with TE-671.
